According to patent US11352349B2, “Type II topoisomerase inhibitors and methods of making and using thereof” (Ohio State Innovation Foundation, priority 2017, dated 2022):
≈ marks a conversion by molar mass, not a printed value. Read-outs that look alike come from different tables or passages of the source.

Key:
[1] = system: USA 300 strain of MRSA; experiment: MIC by broth microdilution, USA 300 strain of MRSA; type: cell-based, Staphylococcus aureus; conditions: multiple values when multiple MIC assays were conducted; for MIC: Staphylococcus aureus, read-out: MIC USA300
Experimental: Minimum inhibitory concentrations were determined using the quality control strain S. aureus ATCC 29213 (Table 1) by the broth microdilution method according to guidelines of the Clinical and Laboratory Standards Institute (CLSI) (Cockerill, F. R.; et al., 2012, Methods for dilution antimicrobial susceptibility tests for bacteria that grow aerobically; approved standard-ninth edition. MA07-A9. Clinical and Laboratory Standard Institute, Wayne, Pa.). […] MICs for selected compounds were also determined using a USA 300 strain of MRSA (Hidron, et al., Lancet Infect. Dis. 2009, 9:384-392). Vancomycin was used as an additional control.

[2] = molecular target: T1, Staphylococcus aureus Topo IV (Staphylococcus aureus, UniProt P0C1S7+P0C1U9); experiment: Staphylococcus aureus Topo IV decatenation assay; type: biochemical
T1 construct: purchased Inspiralis, Norwich, UK
T1 sequence (P0C1S7 whole entry): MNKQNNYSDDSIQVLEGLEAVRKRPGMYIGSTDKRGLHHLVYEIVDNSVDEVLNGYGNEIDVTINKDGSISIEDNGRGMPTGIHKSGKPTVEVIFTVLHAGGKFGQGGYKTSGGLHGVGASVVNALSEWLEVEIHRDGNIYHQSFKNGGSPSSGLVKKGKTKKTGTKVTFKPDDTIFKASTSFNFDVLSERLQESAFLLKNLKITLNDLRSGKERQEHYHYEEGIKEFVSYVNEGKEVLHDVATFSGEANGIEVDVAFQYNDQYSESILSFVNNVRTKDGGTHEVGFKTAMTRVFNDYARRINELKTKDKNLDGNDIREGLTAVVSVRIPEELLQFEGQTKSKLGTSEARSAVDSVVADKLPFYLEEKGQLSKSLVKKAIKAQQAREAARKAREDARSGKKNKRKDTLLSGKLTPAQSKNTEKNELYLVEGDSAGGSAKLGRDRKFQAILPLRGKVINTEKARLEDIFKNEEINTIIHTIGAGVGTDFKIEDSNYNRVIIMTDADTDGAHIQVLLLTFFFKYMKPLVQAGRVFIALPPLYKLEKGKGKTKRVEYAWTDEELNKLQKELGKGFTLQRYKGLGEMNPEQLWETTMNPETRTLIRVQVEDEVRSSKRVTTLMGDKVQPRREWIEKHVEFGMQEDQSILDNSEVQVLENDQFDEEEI
T1 sequence (P0C1U9 whole entry): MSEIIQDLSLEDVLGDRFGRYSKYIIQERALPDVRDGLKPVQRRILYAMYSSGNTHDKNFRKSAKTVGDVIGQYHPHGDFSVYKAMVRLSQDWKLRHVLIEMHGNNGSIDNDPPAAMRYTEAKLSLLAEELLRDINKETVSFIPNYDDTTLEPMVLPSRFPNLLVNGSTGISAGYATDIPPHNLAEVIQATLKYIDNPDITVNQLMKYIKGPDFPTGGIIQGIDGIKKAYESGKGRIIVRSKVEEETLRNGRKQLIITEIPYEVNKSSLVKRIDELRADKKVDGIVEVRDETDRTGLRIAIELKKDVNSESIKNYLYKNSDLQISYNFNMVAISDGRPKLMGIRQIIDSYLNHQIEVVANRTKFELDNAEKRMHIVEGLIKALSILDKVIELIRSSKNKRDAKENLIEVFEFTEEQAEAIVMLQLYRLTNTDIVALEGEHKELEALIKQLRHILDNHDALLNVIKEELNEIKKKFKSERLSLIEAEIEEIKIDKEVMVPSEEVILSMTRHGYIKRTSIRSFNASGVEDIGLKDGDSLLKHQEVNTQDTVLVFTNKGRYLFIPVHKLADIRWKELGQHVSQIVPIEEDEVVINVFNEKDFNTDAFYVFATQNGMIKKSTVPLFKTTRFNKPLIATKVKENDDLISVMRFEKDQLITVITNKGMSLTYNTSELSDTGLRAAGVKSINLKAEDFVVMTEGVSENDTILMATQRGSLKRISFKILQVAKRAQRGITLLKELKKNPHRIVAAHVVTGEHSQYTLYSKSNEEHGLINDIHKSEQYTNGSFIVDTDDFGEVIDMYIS
Experimental: (§1) A subset of analogs was used to assess the degree of inhibition of DNA gyrase or TopoIV (Inspiralis, Norwich, UK), both to establish the mechanism of action and to evaluate the relative balance of inhibitory activities (Table 1). A subset of compound was also assayed to determine the degree of inhibition of human topoisomerase II (Inspiralis, Norwich, UK)).
(§2) In all experiments, the activity of the enzymes was determined prior to the testing of the compounds and 1 unit (U) was defined as the amount of enzyme required to just fully supercoil, relax or decatenate the substrate (see explanation of gels). This amount of enzyme was initially used in determination of control inhibitor activity. These experiments were performed in duplicate.
(§3) For all assays the final DMSO concentration was 1%. 10 mM stocks of the compounds were serially diluted into 10% DMSO at 1 mM, 0.5 mM, 0.25 mM, 0.1 mM, 0.05 mM, 0.01 mM, 0.005 mM, 0.001 mM, 0.0005 mM, 0.0001 mM and 0.00005 mM. 3.0 μl of each dilution was added to a 30 μl assay.
(§4) Bands were visualised by ethidium staining for 20 minutes and destaining for 20 minutes. Gels were scanned using documentation equipment (GeneGenius, Syngene, Cambridge, UK) and % inhibition levels (where appropriate) were obtained with gel scanning software. (GeneTools, Syngene, Cambridge, UK)
Staphylococcus aureus Topo IV Decatenation Assay
1 U of Topo IV was incubated with 200 ng kDNA DNA in a 30 μl reaction at 37° C. for 30 minutes under the following conditions: 50 mM Tris.HCl (7.5), 5 mM MgCl2, 5 mM DTT, 1.5 mM ATP, 350 mM potassium glutamate and 0.05 mg/ml BSA.
Each reaction was stopped by the addition of 30 μl chloroform/iso-amyl alcohol (26:1) and 30 μl Stop Dye, before being loaded on a 1.0% TAE gel run at 70V for 2 hours.

[3] = molecular target: T2, human topo II (Homo sapiens, UniProt P11388); experiment: Topoisomerase II (alpha) decatenation assay; type: biochemical; conditions: activity remaining at 100 μM compound; read-out: hTopoll (% activity remaining at 100 μM)
T2 construct: purchased Inspiralis, Norwich, UK
T2 sequence (P11388 whole entry): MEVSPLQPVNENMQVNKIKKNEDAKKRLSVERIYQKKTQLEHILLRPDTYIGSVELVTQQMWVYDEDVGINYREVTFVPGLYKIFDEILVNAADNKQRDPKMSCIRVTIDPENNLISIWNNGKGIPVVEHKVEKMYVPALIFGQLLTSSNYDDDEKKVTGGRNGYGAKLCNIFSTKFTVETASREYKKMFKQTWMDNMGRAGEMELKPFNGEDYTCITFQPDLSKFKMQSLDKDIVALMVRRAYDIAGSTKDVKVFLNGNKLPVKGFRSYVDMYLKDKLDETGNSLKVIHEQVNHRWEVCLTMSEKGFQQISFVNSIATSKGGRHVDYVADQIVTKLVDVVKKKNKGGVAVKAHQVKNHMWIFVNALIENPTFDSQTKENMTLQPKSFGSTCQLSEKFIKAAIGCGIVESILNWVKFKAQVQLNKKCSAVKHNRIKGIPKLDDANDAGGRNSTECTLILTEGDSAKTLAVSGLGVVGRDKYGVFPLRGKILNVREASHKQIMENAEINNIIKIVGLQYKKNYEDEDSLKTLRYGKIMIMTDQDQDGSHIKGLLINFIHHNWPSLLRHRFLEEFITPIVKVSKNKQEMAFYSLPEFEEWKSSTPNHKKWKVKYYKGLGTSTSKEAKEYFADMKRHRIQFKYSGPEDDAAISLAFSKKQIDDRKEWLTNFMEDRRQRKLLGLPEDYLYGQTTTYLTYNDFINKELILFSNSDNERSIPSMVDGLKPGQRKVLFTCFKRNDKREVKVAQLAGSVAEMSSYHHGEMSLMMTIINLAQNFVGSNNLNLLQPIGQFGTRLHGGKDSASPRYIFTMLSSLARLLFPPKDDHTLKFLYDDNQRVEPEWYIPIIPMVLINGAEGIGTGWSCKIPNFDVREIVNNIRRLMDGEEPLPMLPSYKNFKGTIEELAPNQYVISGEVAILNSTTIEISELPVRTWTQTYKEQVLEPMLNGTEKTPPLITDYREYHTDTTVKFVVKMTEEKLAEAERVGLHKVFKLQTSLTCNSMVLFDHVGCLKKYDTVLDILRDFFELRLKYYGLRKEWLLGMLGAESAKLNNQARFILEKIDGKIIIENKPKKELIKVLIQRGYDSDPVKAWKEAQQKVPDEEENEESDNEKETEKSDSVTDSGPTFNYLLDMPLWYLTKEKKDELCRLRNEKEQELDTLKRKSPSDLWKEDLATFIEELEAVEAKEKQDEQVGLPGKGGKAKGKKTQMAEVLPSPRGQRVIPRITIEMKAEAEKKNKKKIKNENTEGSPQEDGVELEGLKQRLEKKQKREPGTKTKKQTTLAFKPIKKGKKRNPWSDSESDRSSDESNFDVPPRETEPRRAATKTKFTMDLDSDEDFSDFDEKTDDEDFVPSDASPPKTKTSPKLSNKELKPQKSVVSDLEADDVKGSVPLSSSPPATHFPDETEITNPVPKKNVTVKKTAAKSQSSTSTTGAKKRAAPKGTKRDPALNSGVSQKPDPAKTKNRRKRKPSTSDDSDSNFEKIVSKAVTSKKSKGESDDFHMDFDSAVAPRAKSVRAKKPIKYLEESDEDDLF
Experimental: as §1, §2, §3, §4
Topoisomerase II (Alpha) Decatenation Assay
Each reaction was stopped by the addition of 30 μl chloroform/iso-amyl alcohol (26:1) and 30 μl Stop Dye, before being loaded on a 1.0% TAE gel run at 90V for 2 hours.

[4] = molecular target: T3, Staphylococcus aureus gyrase (Staphylococcus aureus, UniProt P0A0K8+P20831); experiment: Staphylococcus aureus gyrase supercoiling assay; type: biochemical
T3 construct: purchased Inspiralis, Norwich, UK
T3 sequence (P20831 whole entry): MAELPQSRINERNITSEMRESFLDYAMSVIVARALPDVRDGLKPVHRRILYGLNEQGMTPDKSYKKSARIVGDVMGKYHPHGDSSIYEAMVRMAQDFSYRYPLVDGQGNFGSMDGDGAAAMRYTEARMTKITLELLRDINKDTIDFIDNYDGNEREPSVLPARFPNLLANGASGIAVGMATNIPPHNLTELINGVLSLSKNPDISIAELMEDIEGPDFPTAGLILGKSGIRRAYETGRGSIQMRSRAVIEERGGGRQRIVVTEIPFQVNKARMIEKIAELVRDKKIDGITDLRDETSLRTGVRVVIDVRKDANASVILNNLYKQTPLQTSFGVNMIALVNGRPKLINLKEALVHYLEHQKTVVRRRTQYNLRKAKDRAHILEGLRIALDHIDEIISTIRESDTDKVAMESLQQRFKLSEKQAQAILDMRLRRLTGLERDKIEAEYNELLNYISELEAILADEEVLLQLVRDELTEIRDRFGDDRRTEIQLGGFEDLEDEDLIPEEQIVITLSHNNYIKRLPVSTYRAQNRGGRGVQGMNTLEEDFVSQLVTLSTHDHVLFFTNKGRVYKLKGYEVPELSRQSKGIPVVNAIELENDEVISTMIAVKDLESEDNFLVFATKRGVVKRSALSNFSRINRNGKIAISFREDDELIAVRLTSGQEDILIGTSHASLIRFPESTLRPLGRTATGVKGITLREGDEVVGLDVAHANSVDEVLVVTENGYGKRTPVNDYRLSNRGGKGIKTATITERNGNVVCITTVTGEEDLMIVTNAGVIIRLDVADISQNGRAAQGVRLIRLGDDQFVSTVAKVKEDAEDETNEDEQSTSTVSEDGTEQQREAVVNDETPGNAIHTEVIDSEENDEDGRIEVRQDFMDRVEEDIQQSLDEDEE
T3 sequence (P0A0K8 whole entry): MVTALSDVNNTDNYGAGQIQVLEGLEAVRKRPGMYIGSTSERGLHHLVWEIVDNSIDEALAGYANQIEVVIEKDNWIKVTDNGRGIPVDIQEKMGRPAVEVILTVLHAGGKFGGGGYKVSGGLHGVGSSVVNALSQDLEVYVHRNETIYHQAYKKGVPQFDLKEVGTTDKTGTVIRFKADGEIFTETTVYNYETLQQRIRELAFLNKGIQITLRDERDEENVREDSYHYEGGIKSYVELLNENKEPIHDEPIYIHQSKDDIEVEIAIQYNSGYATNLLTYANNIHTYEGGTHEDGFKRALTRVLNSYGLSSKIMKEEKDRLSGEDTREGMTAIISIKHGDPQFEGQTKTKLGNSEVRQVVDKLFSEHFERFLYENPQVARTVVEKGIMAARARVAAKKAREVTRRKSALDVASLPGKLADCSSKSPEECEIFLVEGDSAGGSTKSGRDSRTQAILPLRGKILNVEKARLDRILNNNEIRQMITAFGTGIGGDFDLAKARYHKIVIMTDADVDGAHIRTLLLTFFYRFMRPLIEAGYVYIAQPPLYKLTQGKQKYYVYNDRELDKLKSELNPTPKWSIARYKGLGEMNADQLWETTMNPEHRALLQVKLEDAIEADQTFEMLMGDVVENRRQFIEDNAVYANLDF
Experimental: as §1, §2, §3, §4
Staphylococcus aureus gyrase supercoiling
1 U of DNA gyrase was incubated with 0.5 μg of relaxed pBR322 DNA in a 30 μl reaction at 37° C. for 30 minutes under the following conditions: 40 mM HEPES. KOH (pH 7.6), 10 mM magnesium acetate, 10 mM DTT, 2 mM ATP, 500 mM potassium glutamate and 0.05 mg/ml BSA.
Each reaction was stopped by the addition of 30 μl chloroform/iso-amyl alcohol (26:1) and 30 μl Stop Dye (40% sucrose (w/v), 100 mM Tris.HCl (pH 7.5), 10 mM EDTA, 0.5 μg/ml bromophenol blue), before being loaded on a 1.0% TAE gel run at 70V for 2 hours.

[5] = system: S. aureus ATCC 29213; experiment: MIC by broth microdilution (CLSI), quality control strain S. aureus ATCC 29213; type: cell-based, Staphylococcus aureus; conditions: multiple values when multiple MIC assays were conducted; for MIC: Staphylococcus aureus, ATCC29213, S. aureus ATCC 29213; for MIC 29213: S. aureus ATCC 29213
Experimental: Minimum inhibitory concentrations were determined using the quality control strain S. aureus ATCC 29213 (Table 1) by the broth microdilution method according to guidelines of the Clinical and Laboratory Standards Institute (CLSI) (Cockerill, F. R.; et al., 2012, Methods for dilution antimicrobial susceptibility tests for bacteria that grow aerobically; approved standard-ninth edition. MA07-A9. Clinical and Laboratory Standard Institute, Wayne, Pa.). […] Published quality control ranges for gepotidacin and ciprofloxacin were used to validate each assay. MICs for selected compounds were also determined using a USA 300 strain of MRSA (Hidron, et al., Lancet Infect. Dis. 2009, 9:384-392). Vancomycin was used as an additional control.

[6] = S. aureus Topo IV decatenation, read-out: TopolV Decat IC50
[7] = S. aureus DNA gyrase supercoiling, read-out: Gyrase IC50

SMILES	MIC [1]	MIC USA300 [1]	IC50 [2]	remaining activity at 100 µM [3]	IC50 [4]	MIC [5]	IC50 [2, 6]	IC50 [4, 7]	MIC 29213 [5]
COc1ccc2ncc(F)c(C(O)C[C@H]3OC[C@H](NCc4ccc5c(c4)OCCO5)CO3)c2c1 (stereo partly drawn) [AB-0016, 2-(5-(((2,3-dihydrobenzo[b][1,4]dioxin-6-yl)methyl)amino)-trans-1,3-dioxan-2-yl)-1-(3-fluoro-6-methoxyquinolin-4-yl)ethan-1-ol]	0.25 µg/mL (≈ 0.531 µM)	0.25 µg/mL (≈ 0.531 µM)	7980 nM	77.4%	90 nM	0.125 µg/mL (≈ 0.266 µM)			
COc1ccc2nccc(CC[C@H]3OC[C@H](NCc4ccc5c(c4)NC(=O)CO5)CO3)c2c1 [AB-0057, 6-(((2-(2-(6-methoxyquinolin-4-yl)ethyl)-trans-1,3-dioxan-5-yl)amino)methyl)-2H-benzo[b][1,4]oxazin-3(4H)-one]	1 µg/mL (≈ 2.22 µM)			93%		1 µg/mL (≈ 2.22 µM)	> 100000 nM	740 nM	2 µg/mL (≈ 4.45 µM)
COc1ccc2nccc(CC[C@H]3OC[C@H](NCc4ccc5c(n4)NC(=O)CO5)CO3)c2c1 [AB-0055, 6-(((2-(2-(6-methoxyquinolin-4-yl)ethyl)-trans-1,3-dioxan-5-yl)amino)methyl)-2H-pyrido[3,2-b][1,4]oxazin-3(4H)-one]	1 µg/mL (≈ 2.22 µM)			99.1%		0.5 µg/mL (≈ 1.11 µM)	> 100000 nM	780 nM	
COc1ccc2ncc(F)c(CC[C@H]3OC[C@H](NCc4cc5c(cn4)OCCC5)CO3)c2n1 [AB-0018]	0.25 µg/mL (≈ 0.55 µM)			79.8%		≤ 0.25 µg/mL	5330 nM	160 nM	
COc1ccc2ncc(F)c(CC[C@H]3OC[C@H](NCc4ccc5c(c4)OCCO5)CO3)c2n1 [AB-0015, N-((2,3-dihydrobenzo[b][1,4]dioxin-6-yl)methyl)-2-(2-(3-fluoro-6-methoxy-1,5-naphthyridin-4-yl)ethyl)-trans-1,3-dioxan-5-amine]	0.125 µg/mL (≈ 0.274 µM)		980 nM	55%	30 nM	≤ 0.25 µg/mL			
COc1ccc2nccc(CC[C@H]3OC[C@H](NCc4cc5c(cn4)OCCC5)CO3)c2c1 [AB-0014, N-((3,4-dihydro-2H-pyrano[2,3-c]pyridin-6-yl)methyl)-2-(2-(6-methoxyquinolin-4-yl)ethyl)-trans-1,3-dioxan-5-amine]	2 µg/mL (≈ 4.59 µM)			93.8%		1 µg/mL (≈ 2.3 µM)	25000 to 50000 nM	330 nM	
COc1ccc2nccc(CC[C@H]3OC[C@H](NCc4ccc(Cl)c(Cl)c4)CO3)c2c1 [AB-0012, N-(3,4-dichlorobenzyl)-2-(2-(6-methoxyquinolin-4-yl)ethyl)-trans-1,3-dioxan-5-amine]	0.5 µg/mL (≈ 1.12 µM)			93.2%			> 100000 nM	280 nM	
COc1ccc2ncc(F)c(CC[C@H]3OC[C@H](NCc4ccc5c(n4)NC(=O)CS5)CO3)c2n1 [AB-0059, 6-(((2-(2-(3-fluoro-6-methoxy-1,5-naphthyridin-4-yl)ethyl)-trans-1,3-dioxan-5-yl)amino)methyl)-2H-pyrido[3,2-b][1,4]thiazin-3(4H)-one]	0.25 µg/mL (≈ 0.515 µM)			95.7%		≤ 0.5 µg/mL	> 100000 nM	170 nM	
COc1ccc2ncc(F)c(CC[C@H]3OC[C@H](NCc4cc5c(cn4)OCCO5)CO3)c2n1 [AB-0061, N-((2,3-dihydro-[1,4]dioxino[2,3-c]pyridin-7-yl)methyl)-2-(2-(3-fluoro-6-methoxy-1,5-naphthyridin-4-yl)ethyl)-trans-1,3-dioxan-5-amine]	0.25 µg/mL (≈ 0.548 µM)			69.6%		0.125 µg/mL (≈ 0.274 µM)	61000 nM	420 nM	
COc1ccc2nccc(CC[C@H]3OC[C@H](NCc4cc5c(cn4)OCCO5)CO3)c2c1 [AB-0013, N-((2,3-dihydro-[1,4]dioxino[2,3-c]pyridin-7-yl)methyl)-2-(2-(6-methoxyquinolin-4-yl)ethyl)-trans-1,3-dioxan-5-amine]	2 µg/mL (≈ 4.57 µM)			95.1%		1 µg/mL (≈ 2.29 µM)	50000 nM	360 nM	2 µg/mL (≈ 4.57 µM)
COc1ccc2nccc(CC[C@H]3OC[C@H](NCc4ccc(Cl)cc4)CO3)c2c1 [AB-0052, N-(4-chlorobenzyl)-2-(2-(6-methoxyquinolin-4-yl)ethyl)-trans-1,3-dioxan-5-amine]	4 µg/mL (≈ 9.69 µM)			97.8%		1 µg/mL (≈ 2.42 µM)	> 100000 nM	1160 nM	
COc1ccc2ncc(F)c(CC[C@H]3OC[C@H](NCc4ccc(F)c(F)c4)CO3)c2n1 [AB-0062, N-(3,4-difluorobenzyl)-2-(2-(3-fluoro-6-methoxy-1,5-naphthyridin-4-yl)ethyl)-trans-1,3-dioxan-5-amine]	4 µg/mL (≈ 9.23 µM)			90.7%		2 µg/mL (≈ 4.61 µM)	> 100000 nM	4430 nM	
COc1ccc2ncc(F)c(C(O)C[C@H]3OC[C@H](NCc4cc5c(cn4)OCCC5)CO3)c2c1 (stereo partly drawn) [AB-0020, 2-(5-(((3,4-dihydro-2H-pyrano[2,3-c]pyridin-6-yl)methyl)amino)-trans-1,3-dioxan-2-yl)-1-(3-fluoro-6-methoxyquinolin-4-yl)ethan-1-ol]	1 µg/mL (≈ 2.13 µM)			92.9%		0.5 µg/mL (≈ 1.06 µM)	15200 nM	130 nM	
COc1ccc2nccc(CC[C@H]3OC[C@H](NCc4ccc(Cl)c(F)c4)CO3)c2c1 [AB-0030, N-(4-chloro-3-fluorobenzyl)-2-(2-(6-methoxyquinolin-4-yl)ethyl)-trans-1,3-dioxan-5-amine]	1 µg/mL (≈ 2.32 µM)			97.8%		2 µg/mL (≈ 4.64 µM)	> 100000 nM	950 nM	
COc1ccc2nccc(CC[C@H]3OC[C@H](NCc4ccc5c(n4)NC(=O)CS5)CO3)c2c1 [AB-0021, 6-(((2-(2-(6-methoxyquinolin-4-yl)ethyl)-trans-1,3-dioxan-5-yl)amino)methyl)-2H-pyrido[3,2-b][1,4]thiazin-3(4H)-one]	0.5 µg/mL (≈ 1.07 µM)			91.1%		0.5 µg/mL (≈ 1.07 µM)	> 100000 nM	590 nM	
COc1ccc2nccc(CC[C@H]3OC[C@H](NCc4ccc5c(c4)OCCO5)CO3)c2c1 [AB-0011, N-((2,3-dihydrobenzo[b][1,4]dioxin-6-yl)methyl)-2-(2-(6-methoxyquinolin-4-yl)ethyl)-trans-1,3-dioxan-5-amine]	0.5 µg/mL (≈ 1.15 µM)		13800 nM	84.2%				100 nM	
COc1ccc2nccc(CC[C@H]3OC[C@H](NCc4ccc(C#N)cc4)CO3)c2c1 [AB-0047, 4-(((2-(2-(6-methoxyquinolin-4-yl)ethyl)-trans-1,3-dioxan-5-yl)amino)methyl)benzonitrile]				88.4%		> 64 µg/mL	> 100000 nM	13300 nM	
